Experimental data: PubChem BioAssay AID624456 (Sanford-Burnham Center for Chemical Genomics, 2012)

System: compound stability in 1x PBS, percent remaining
Experiment: percent compound remaining in PBS buffer – biochemical, 1x PBS, with and without 50% ACN, set 2, ADME assay (AID 624456);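 note: percent left after two days of incubation at room temperature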
[1] = measured here: stability in PBS with 50% ACN

SMILES	stability [%]	stability [1] [%]
NC(=O)C1CCN(c2nc(-c3ccc(Br)cc3)cs2)CC1	70.8	100
Cc1ccc(N2CCN(S(=O)(=O)N3CCCCC3)CC2)c(C)c1	15.1	96.7
Cc1cc(C)nc(-n2nc(C)c(Sc3ccc(F)cc3)c2N)n1	56	100
Cc1ccc(C(=O)n2c3ccccc3c3ccccc32)cc1	77.2	74.6
O=C(O)CCC(NS(=O)(=O)c1ccc(-c2ccccc2)cc1)C(=O)O (stereo not given)	100	100
Cc1nc(SCc2nc3ccccc3[nH]2)c2oc3ccccc3c2n1	74.2	84.7
Cc1ccc(NC(=O)CCC(=O)N/N=C/c2ccc([N+](=O)[O-])o2)cc1C	51.3	65.6
O=C(CSc1cccc2cccnc12)N1CCCC1	100	100
CCCc1nc2c(=O)n(C)c(=O)nc-2n(C)n1	100	100
Cc1ccc(C)c(NS(=O)(=O)c2cc(C(=O)Nc3ccccc3-c3ccccc3)ccc2Cl)c1	34.6	98
O=c1[nH]c2c(s1)C(c1cccnc1)C1C3CCC(C3)C1S2 (stereo not given)	55	66.5
O=C(COC(=O)C12CC3CC(CC(C3)C1)C2)NCc1ccco1	49.6	88.2
O=C1C2CC=CCC2C(=O)N1c1n[nH]c(-c2ccccc2)n1 (stereo not given)	50.8	100
COc1ccc(CSc2nc(C)cc(=O)[nH]2)cc1	88.5	99.8
CCCn1ncc(CN2CCCC(C(=O)c3cccc(OC(C)C)c3)C2)c1C (stereo not given)	100	100
CS(=O)(=O)c1ccc(C(=O)OCC(=O)NC23CC4CC(CC(C4)C2)C3)cc1[N+](=O)[O-]	12.8	100
CN(C)c1nc(N)nc(CSc2nnnn2-c2cccc3ccccc23)n1	75.8	94.6
COc1ccc(OC)c(S(=O)(=O)Nc2cnc3ccccc3c2)c1	89.6	93
Cc1ccc(S(=O)(=O)n2c(N)nc3ccccc32)cc1	97.8	98.8
Cn1cnc([N+](=O)[O-])c1Sc1ncnc2nc[nH]c12	31.9	–
Cc1ccc(S(=O)(=O)NCc2ccc(C(=O)NCCN(Cc3ccccc3)C(C)C)cc2)cc1	84.8	100
Cc1ccnc(NC(=O)CCCOc2cc(=O)n(C)c3ccccc23)c1	93.8	100
COC(=O)c1ccccc1NC(=O)c1ccc(F)cc1	11.2	93.4
O=C1NCCCc2c1oc1ccc(O)cc21	100	100
O=S(=O)(NC1CCCCC1N1CCOCC1)c1ccc(Cl)cc1 (stereo not given)	75	89.4
COc1ccc(CNCc2cccc3ccccc23)cc1	50.6	100

SMILES	stability [%]	stability [1] [%]
Cc1cc2c(s1)c1cnn(Cc3ccccc3F)c(=O)c1n2C	20.4	86.7
c1ccc2c(Nc3nnc(-c4ccncc4)s3)cccc2c1	84.2	100
CCOc1ccc(-c2nc(-c3ccncc3)no2)cc1OCC	59.9	100
Cc1ccc(S(=O)(=O)C(c2ccccc2)c2c(C)noc2C)cc1 (stereo not given)	83.8	99.3
Brc1ccc2c(c1)CN1CCCC1=N2	92.9	93.4
COc1ccc(OC)c(-c2nnc3n2N=C(c2ccc(OC)c(OC)c2)CS3)c1	89.6	99.6
Cc1cc(-c2nnc3n2CCCCC3)c(C)n1-c1ccccc1	100	100
O=C(O)c1ccccc1OCc1ccccc1Br	98.8	100
Cc1ccc(-n2c(N)c(C#N)c(-c3ccccc3)c(C#N)c2=O)cc1	81.4	98.2
O=S1(=O)Nc2c(ccc3cccnc23)-c2ccccc21	91.3	94.9
C=CCn1c(SCC(=O)c2ccc(O)c(O)c2)nnc1-c1ccccc1OC	82.6	100
O=C(COc1ccccc1Br)NCCc1nc2ccccc2[nH]1	92.1	100
CCCN(CCC)CCNC(=O)C1CCN(Cc2nc(-c3ccc(Cl)cc3)oc2C)CC1	99.4	100
COc1ccc(N(C(=O)CCl)C(C(=O)NCCc2ccccc2)c2cccs2)cc1Cl (stereo not given)	71.8	100
COc1cccc(-c2nc(-c3ccc(NC(=O)Cc4ccccc4OC)cc3)no2)c1	81.5	90.4
Cc1ccc(NS(=O)(=O)c2ccc3c(c2)CCC(=O)N3)cc1C	68.5	100
CSc1nc(-c2ccc(C)cc2)nc(C(Cl)Cl)n1	0.45	96.5
COc1ccc(S(=O)(=O)n2nc(OC(=O)c3ccccc3)cc2N)cc1	11.1	91.8
O=C(c1ccccn1)N(Cc1cccs1)C1(C(=O)NC2CCCCC2)CCCCC1	93.9	97.5
O=c1[nH]c(SCc2ccc(Cl)cc2)nc2c1CCC2	98.3	100
O=C(CCNS(=O)(=O)c1cccc2nsnc12)N1CCN(c2ccccn2)CC1	91.6	100
COc1ccccc1N(/N=C1\Sc2ccccc2C1=O)C(C)=O	81.6	88.1
N#Cc1ccccc1CSc1nc2ncc(Br)cc2[nH]1	60.5	55.9
O=[N+]([O-])c1ccc(CN2CCOCCOCCN(Cc3ccc([N+](=O)[O-])cc3)CCOCC2)cc1	96.1	100
O=C(O)c1ccc(N2C(=O)/C(=C/c3ccc(-c4ccc([N+](=O)[O-])cc4)o3)C=C2c2ccccc2)cc1	14.5	62.9
Cn1nnnc1Sc1ncnc2scc(-c3ccccc3)c12	85	95.1

SMILES	stability [%]	stability [1] [%]
CCCN1CNc2c(c(=O)[nH]c(=S)n2CCc2ccc(OC)c(OC)c2)C1	78.5	100
c1ccc(CC2CCN(c3ncnc4sccc34)CC2)cc1	6.42	93.2
COc1nc(-c2ccccc2)nnc1-c1ccccc1	10.1	98.9
CN(C)c1oc(-c2ccc(OCc3ccc(Cl)cc3)cc2)nc1C#N	9.08	100
CCOC(=O)C(C)Oc1cccc2c(=O)n(CC(=O)Nc3ccc4c(c3)OCCO4)ccc12 (stereo not given)	56.1	94.6
O=C1CCCC2=C1C1(CCCC1)N=C(Nc1nc3ccccc3o1)N2	21.9	90.2
COc1ccc(S(=O)(=O)N2CCN(S(=O)(=O)c3ccc4c(c3)OCCO4)CC2)cc1	72.3	80.8
CC[C@H]1CN2CCc3cc(OC)c(OC)cc3[C@@H]2C[C@@H]1C[C@H]1NCCc2cc(OC)c(OC)cc21	23.6	90
N#C/C(=C\c1ccc([N+](=O)[O-])o1)c1nc2ccccc2[nH]1	52.4	100
COc1ccc(C2CC(c3ccccc3)=NN2c2ccc(S(N)(=O)=O)cc2)cc1 (stereo not given)	58.2	90.9
CC1CCCN(C(C(=O)Nc2ccc3c(c2)OCCO3)c2ccccc2)C1 (stereo not given)	100	100
CCN1CCN(c2nc3ccccc3nc2C(C#N)C(=O)OC2CCCCC2)CC1 (stereo not given)	33.4	80.1
CC(=O)c1ccc(N2CCN(S(=O)(=O)c3ccc4c(c3)CC(=O)N4)CC2)cc1	95.7	100
Cc1cc(C(=O)CN2C(=O)CCC2=O)c(C)n1Cc1ccccc1	73	85.4
CCCc1cc(C(=O)N(C2CCCCC2)C2CCCCC2)no1	6.53	76.7
CCc1nnc(NC(=O)c2ccc(NS(=O)(=O)c3ccccc3)cc2)s1	86	95.2
CCCC(=O)Nc1cccc(NC(=O)c2ccccc2Br)c1	79.5	86.7
Brc1cc2c(cc1C1Nc3ccccc3C3C=CCC31)OCO2 (stereo not given)	0.38	68.9
COc1ccc(C2c3c(ncn(CCN4CCOCC4)c3=N)Oc3ccc4ccccc4c32)cc1OC (stereo not given)	76.7	85.6
CC(C)C(=O)NC(c1ccco1)c1ccc2cccnc2c1O (stereo not given)	92.9	100
C/C=C/Cn1c(SCCCc2ccccc2)nc2c1c(=O)[nH]c(=O)n2C	73.4	100
c1ccc(-c2nnc(N3CCOCC3)nc2-c2ccccc2)cc1	57.4	100
CCc1oc2ccccc2c1C(=O)c1cc(Br)c(O)c(Br)c1	100	100
O=C(O)c1cccnc1SCCc1ccccc1	96.5	100
Cc1cccc(-n2cnc3cc(C(=O)N4CCCCC4)ccc32)c1	43.5	80
Cc1ccc(C)c(OCCn2cc(C(=O)O)c3ccccc32)c1	90.3	100
